Test results reported in patent publication US6884805B2, “Polymorph forms of N-(2,3-dimethyl-5,6,7,8-tetrahydrofuro[2,3-B]quinolin-4-YL)-2-(2-oxopyrrolidin-1-YL)acetamide” (Mitsubishi Pharma Corporation, priority 2001, dated 2005).
Converted amounts (≈) assume the structure as drawn. “Also recorded” adds a separate entry of the source. Read-outs that look alike come from different tables or passages of the source.

Legend:
Type in all cases: physicochemical
[1] = Solubility in the crystallization solvent (for the supersaturability calculation); conditions: aqueous with cosolvent or surfactant or cyclodextrin, about room temperature, read-out: solubility under the condition of crystallization
Protocol: The supersaturability of the form A crystals was calculated as follows: The supersaturability (calculation) is equal to the concentration of the dissolving N-(2,3-dimethyl-5,6,7,8-tetrahydrofuro[2,3-b]quinolin-4-yl)-2-(2-oxopyrrolidin-1-yl)acetamide divided by the solubility of N-(2,3-dimethyl-5,6,7,8-tetrahydrofuro[2,3-b]quinolin-4-yl)-2-(2-oxopyrrolidin-1-yl)acetamide under the condition of crystallization.
The solubility of N-(2,3-dimethyl-5,6,7,8-tetrahydrofuro[2,3-b]quinolin-4-yl)-2-(2-oxopyrrolidin-1-yl)acetamide under the condition of crystallization refers to the solubility of N-(2,3-dimethyl-5,6,7,8-tetrahydrofuro[2,3-b]quinolin-4-yl)-2-(2-oxopyrrolidin-1-yl)acetamide in the solvents used in crystallization at about room temperature.

[2] = Crystal form stability at room temperature and during storage; conditions: for stability in storage: during storage (over time); for stability at room temperature compared with the other crystal form: room temperature (25° C.)
Excerpt: The form A crystal and the form B crystal of the present invention can be prepared with good reproducibility by using solvents safe for human bodies (e.g., pharmaceutically, pharmacologically, and/or physiologically acceptable). Therefore, it is far more useful as a pharmaceutical bulk or an active ingredient of a medicament.

[3] = Conversion of form B crystal to form A crystal in stirred water suspension; conditions: 0.5 g in 10 mL water, stirred 24 hours, confirmed by powder X-ray diffraction
Protocol: A suspension was prepared by adding 0.5 g of form B crystals of N-(2,3-dimethyl-5 ,6,7,8-tetrahydrofuro [2,3-b]quinolin-4-yl)-2-(2-oxopyrrolidin-1-yl)acetamide to 10 mL of water. […] The powder X-ray diffraction pattern of the resulting crystals was measured to confirm that the resulting crystals were form A crystals.

[4] = Water solubility of saturated solutions measured by LC
Protocol: Saturated solutions of the form A crystals and the form B crystals were prepared at room temperature (25° C.). The concentrations of N-(2,3-dimethyl-5,6,7,8-tetrahydrofuro[2,3-b]quinolin-4-yl)-2-(2-oxopyrrolidin-1-yl)acetamide in each of the saturated solutions then was measured to obtain the water solubility of the form A and form B crystals.
About 20 mg of the form A crystal was weighed and put into separate tube with screwcap, then 10 mL of water were added, and the tube was capped. The tube was ultrasonicated for 5 minutes to suspend the sample. The tube then was shaken for 3 hours in an incubator, with the shaker setting at an appropriate temperature to obtain a saturated solution. The saturated solutions were filtrated using a Chromatodisk 25A (GL Science). 5 mL of the filtrate were measured, and 5 mL of the internal standard solutions (16 mg of isopropyl p-hydroxybenzoate were weighed, and 50% methanol was added to obtain 100 mL of an internal standard solutions) were added, and then 50% methanol was added to obtain 50 mL of sample solutions. 20 mg of each crystals were weighed, and then methanol was added to obtain 50 mL solutions. 5 mL of the aforementioned solutions were measured, and then 5 mL of the internal standard solutions were added, and then 50% of methanol was added to obtain 50 mL of the standard solutions. […]

Row | Compound | solubility ([1]; 10% methanol) [mg/mL] | solubility ([1]; 60% methanol) [mg/mL] | stability in storage [2] | stability at room temperature compared with the other crystal form [2] | stability at room temperature compared with the other crystal form ([2]; listed as form A) | crystal form after stirring a suspension in water [3] | solubility (in words) ([4]; summary statement) | solubility compared with the form A crystal ([4]; water, at 25° C. and over a relatively wide temperature range (FIG. 4))
1 | Cc1oc2nc3c(c(NC(=O)CN4CCCC4=O)c2c1C)CCCC3 [N-(2,3-dimethyl-5,6,7,8-tetrahydrofuro[2,3-b]quinolin-4-yl)-2-(2-oxopyrrolidin-1-yl)acetamide] | 0.41 (≈ 1.2 mM) | 28.1 (≈ 82.2 mM) |  |  |  |  |  | 
2 | Cc1oc2nc3c(c(NC(=O)CN4CCCC4=O)c2c1C)CCCC3 [form A crystal, N-(2,3-dimethyl-5,6,7,8-tetrahydrofuro[2,3-b]quinolin-4-yl)-2-(2-oxopyrrolidin-1-yl)acetamide] |  |  | good stability; also recorded: greater stability | extremely stable; also recorded: better stability | more stable |  |  | 
3 | Cc1oc2nc3c(c(NC(=O)CN4CCCC4=O)c2c1C)CCCC3 [form B crystal, N-(2,3-dimethyl-5,6,7,8-tetrahydrofuro[2,3-b]quinolin-4-yl)-2-(2-oxopyrrolidin-1-yl)acetamide] |  |  | worse stability | worse stability |  | resulted in the form A crystals | good solubility | higher
